The text below walks through data of patent US20240246942A1, “KINASE INHIBITORS FOR THE TREATMENT OF NEURODEGENERATIVE DISEASES” (priority 2020, published 2024).

Experiment in all cases: biochemical
For assay [1], the target named is T1, panel of 374 wild-type kinases (Homo sapiens, UniProt O75116).
T1 construct: purchased Reaction Biology Corporation
The settings on record: read-out: % Enzyme Activity (relative to DMSO controls), kinase ROCK2.

Assay [2] deals with T2, panel of 374 wild-type kinases (Homo sapiens, UniProt P08581).
T2 construct: purchased Reaction Biology Corporation
T2 sequence (P08581 25-1390): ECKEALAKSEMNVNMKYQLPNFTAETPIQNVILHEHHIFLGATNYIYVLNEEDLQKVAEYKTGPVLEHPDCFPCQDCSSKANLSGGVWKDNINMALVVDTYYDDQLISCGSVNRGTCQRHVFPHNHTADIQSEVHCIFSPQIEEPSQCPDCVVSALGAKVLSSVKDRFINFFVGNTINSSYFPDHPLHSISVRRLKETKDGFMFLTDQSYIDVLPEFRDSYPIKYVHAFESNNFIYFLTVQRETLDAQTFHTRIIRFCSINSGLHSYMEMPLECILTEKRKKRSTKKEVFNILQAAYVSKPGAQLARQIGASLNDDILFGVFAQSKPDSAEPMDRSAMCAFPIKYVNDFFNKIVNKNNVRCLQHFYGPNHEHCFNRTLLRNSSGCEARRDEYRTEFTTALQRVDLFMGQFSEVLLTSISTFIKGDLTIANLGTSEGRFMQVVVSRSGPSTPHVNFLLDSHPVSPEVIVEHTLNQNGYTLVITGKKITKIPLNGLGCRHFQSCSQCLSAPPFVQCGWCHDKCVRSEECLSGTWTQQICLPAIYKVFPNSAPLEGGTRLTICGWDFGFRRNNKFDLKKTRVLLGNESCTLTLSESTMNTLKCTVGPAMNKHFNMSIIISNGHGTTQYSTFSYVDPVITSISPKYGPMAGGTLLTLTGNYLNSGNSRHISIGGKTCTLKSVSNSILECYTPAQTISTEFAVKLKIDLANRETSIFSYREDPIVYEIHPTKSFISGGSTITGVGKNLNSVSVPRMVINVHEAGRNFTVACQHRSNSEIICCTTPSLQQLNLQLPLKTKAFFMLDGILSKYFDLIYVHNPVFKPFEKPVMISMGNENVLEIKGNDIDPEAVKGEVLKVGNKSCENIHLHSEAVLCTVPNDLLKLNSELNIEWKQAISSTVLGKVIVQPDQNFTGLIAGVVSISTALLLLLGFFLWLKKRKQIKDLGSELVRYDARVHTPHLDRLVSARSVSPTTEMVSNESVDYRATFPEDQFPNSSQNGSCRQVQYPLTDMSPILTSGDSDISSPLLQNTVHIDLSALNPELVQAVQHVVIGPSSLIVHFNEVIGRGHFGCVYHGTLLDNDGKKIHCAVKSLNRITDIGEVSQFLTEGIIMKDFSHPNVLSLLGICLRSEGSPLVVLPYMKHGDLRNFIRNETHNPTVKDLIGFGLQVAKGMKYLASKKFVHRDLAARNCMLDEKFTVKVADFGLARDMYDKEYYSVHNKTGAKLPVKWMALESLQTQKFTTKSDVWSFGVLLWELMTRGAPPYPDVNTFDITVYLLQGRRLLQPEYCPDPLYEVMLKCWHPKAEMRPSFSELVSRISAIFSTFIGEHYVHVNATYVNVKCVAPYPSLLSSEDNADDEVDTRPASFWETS
The settings on record: read-out: % Enzyme Activity (relative to DMSO controls), c-MET.

Assay [3] deals with T3, panel of 374 wild-type kinases (Homo sapiens, UniProt P11309).
T3 construct: purchased Reaction Biology Corporation
T3 sequence (P11309 whole entry): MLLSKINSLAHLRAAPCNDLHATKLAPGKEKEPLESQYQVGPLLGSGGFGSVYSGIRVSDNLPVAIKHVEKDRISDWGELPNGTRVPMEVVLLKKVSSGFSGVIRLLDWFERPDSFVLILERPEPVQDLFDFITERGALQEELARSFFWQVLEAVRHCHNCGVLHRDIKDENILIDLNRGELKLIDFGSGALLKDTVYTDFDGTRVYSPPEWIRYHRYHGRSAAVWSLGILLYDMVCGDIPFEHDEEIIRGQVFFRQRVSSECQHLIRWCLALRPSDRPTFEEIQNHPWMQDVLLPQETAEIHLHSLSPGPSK
As to conditions: read-out: % Enzyme Activity (relative to DMSO controls), kinase PIM1.

The target in assay [4] is T4, panel of 374 wild-type kinases (Homo sapiens, UniProt P15735).
T4 construct: purchased Reaction Biology Corporation
T4 sequence (P15735 1-406): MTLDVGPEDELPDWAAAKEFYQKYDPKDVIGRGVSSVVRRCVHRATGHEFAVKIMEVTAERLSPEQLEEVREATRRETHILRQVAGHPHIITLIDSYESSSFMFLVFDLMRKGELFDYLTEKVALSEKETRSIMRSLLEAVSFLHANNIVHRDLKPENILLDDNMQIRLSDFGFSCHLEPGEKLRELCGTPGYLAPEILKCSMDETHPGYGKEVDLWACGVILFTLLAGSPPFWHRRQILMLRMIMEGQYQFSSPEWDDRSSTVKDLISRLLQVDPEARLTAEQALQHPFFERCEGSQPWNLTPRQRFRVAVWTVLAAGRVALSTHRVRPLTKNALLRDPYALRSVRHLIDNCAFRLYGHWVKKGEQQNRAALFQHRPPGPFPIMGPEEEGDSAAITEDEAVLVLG
The settings on record: read-out: % Enzyme Activity (relative to DMSO controls), kinase PHKg2.

The target of assay [5] is T5, panel of 374 wild-type kinases (Homo sapiens, UniProt P37173).
T5 construct: purchased Reaction Biology Corporation
As to conditions: read-out: % Enzyme Activity (relative to DMSO controls), kinase TGFBR2.

Assay [6] addresses T6, panel of 374 wild-type kinases (Homo sapiens, UniProt Q13557).
T6 construct: purchased Reaction Biology Corporation
The settings on record: read-out: % Enzyme Activity (relative to DMSO controls), CAMK2d.

The target in assay [7] is T7, panel of 374 wild-type kinases (Homo sapiens, UniProt Q15208).
T7 construct: purchased Reaction Biology Corporation
T7 sequence (Q15208 whole entry): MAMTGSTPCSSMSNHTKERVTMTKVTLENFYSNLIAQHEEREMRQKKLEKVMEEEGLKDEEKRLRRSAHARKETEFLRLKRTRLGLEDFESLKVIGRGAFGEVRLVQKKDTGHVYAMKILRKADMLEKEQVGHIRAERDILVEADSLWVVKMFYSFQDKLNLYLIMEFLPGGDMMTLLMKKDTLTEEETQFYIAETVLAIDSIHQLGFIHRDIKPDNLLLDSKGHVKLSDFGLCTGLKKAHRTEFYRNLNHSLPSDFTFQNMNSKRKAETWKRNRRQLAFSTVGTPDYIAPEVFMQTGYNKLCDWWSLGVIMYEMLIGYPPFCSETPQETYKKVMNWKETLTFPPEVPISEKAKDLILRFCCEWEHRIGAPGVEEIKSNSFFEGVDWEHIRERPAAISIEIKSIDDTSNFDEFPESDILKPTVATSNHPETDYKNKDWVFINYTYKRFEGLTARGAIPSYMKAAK
The settings on record: read-out: % Enzyme Activity (relative to DMSO controls), kinase STK38/NDR1.

The target in assay [8] is T8, panel of 374 wild-type kinases (Homo sapiens, UniProt Q6XUX3).
T8 construct: purchased Reaction Biology Corporation
T8 sequence (Q6XUX3 1-929): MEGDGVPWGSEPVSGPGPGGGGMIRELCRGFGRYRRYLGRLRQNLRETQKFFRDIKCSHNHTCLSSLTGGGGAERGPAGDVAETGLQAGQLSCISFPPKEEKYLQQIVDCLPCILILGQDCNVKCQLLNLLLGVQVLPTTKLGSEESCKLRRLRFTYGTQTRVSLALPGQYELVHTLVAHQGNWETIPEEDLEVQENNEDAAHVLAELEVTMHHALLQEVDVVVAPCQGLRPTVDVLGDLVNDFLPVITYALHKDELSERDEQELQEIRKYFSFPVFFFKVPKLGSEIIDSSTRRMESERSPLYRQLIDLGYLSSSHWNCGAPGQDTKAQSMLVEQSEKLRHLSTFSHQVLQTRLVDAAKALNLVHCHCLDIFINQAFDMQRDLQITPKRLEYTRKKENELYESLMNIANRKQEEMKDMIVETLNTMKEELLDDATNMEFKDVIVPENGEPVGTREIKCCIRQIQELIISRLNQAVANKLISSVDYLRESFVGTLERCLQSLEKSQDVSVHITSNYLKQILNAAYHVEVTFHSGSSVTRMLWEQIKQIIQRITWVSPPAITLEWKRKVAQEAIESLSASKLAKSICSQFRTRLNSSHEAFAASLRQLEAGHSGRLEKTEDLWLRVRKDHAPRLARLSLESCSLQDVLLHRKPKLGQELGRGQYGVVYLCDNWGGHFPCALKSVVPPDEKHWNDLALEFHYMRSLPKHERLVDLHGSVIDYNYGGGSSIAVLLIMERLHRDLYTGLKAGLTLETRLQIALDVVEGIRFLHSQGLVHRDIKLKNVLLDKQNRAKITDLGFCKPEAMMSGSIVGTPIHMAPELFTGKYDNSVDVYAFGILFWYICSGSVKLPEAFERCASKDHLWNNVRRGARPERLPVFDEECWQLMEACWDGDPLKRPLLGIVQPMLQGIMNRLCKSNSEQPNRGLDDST
As to conditions: read-out: % Enzyme Activity (relative to DMSO controls), kinase RIPK5.

Assay [9] addresses T9, panel of 374 wild-type kinases (Homo sapiens, UniProt Q8TD08).
T9 construct: purchased Reaction Biology Corporation
T9 sequence (Q8TD08 1-544): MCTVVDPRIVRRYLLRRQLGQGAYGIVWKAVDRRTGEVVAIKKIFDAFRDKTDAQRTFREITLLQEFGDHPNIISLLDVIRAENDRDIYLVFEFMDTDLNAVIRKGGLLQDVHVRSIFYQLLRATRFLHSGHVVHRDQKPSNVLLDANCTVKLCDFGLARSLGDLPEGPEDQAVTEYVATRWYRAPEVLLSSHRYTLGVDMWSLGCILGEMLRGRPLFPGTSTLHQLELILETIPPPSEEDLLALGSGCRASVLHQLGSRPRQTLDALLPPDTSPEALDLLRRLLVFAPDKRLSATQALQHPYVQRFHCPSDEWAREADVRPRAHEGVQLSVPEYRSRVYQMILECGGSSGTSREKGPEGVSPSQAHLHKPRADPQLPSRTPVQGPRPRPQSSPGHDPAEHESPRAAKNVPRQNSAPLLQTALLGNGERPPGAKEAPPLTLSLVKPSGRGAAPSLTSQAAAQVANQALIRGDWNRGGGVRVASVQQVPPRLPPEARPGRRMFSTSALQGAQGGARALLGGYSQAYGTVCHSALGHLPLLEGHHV
The settings on record: read-out: % Enzyme Activity (relative to DMSO controls), ERK7/MAPK15.

Assay [10] deals with T10, panel of 374 wild-type kinases (Homo sapiens, UniProt Q9UK32).
T10 construct: purchased Reaction Biology Corporation
T10 sequence (Q9UK32 whole entry): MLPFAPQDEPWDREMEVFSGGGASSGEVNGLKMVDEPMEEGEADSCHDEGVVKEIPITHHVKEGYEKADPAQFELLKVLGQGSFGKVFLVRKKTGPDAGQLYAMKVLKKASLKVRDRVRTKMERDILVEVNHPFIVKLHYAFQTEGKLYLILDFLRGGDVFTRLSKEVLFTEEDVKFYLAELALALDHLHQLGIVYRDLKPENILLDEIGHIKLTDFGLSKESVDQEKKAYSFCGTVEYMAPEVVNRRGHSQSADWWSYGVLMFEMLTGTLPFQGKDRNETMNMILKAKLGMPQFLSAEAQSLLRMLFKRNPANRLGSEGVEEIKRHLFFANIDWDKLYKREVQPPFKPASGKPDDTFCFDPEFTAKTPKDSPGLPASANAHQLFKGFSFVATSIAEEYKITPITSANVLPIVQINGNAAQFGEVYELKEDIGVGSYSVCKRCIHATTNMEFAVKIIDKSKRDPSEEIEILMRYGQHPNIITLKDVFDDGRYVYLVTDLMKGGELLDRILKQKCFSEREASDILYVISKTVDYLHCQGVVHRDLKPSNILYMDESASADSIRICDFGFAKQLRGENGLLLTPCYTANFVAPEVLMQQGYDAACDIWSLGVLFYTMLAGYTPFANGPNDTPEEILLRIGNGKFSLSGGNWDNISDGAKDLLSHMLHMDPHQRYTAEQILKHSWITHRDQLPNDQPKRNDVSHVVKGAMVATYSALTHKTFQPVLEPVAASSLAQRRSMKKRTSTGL
The settings on record: read-out: % Enzyme Activity (relative to DMSO controls), kinase RSK4.

Assay [11] has as its target T11, panel of 374 wild-type kinases (Homo sapiens, UniProt Q9Y2K2).
T11 construct: purchased Reaction Biology Corporation
The settings on record: read-out: % Enzyme Activity (relative to DMSO controls), kinase SIK3.

T6 sequence (Q13557 whole entry): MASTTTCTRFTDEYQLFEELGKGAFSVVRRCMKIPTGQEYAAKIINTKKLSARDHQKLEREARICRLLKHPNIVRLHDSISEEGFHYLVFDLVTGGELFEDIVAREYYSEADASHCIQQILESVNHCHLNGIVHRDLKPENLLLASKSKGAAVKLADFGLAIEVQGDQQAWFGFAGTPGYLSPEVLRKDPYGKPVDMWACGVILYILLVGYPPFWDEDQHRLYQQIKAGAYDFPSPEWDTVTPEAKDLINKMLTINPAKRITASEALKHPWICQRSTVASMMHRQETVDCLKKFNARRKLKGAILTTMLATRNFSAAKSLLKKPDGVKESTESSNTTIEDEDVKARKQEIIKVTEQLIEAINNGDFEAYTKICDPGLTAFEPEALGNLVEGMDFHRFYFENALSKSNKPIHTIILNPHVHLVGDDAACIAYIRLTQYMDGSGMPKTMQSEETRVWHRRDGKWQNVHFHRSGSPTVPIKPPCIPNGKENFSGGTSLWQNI
T11 sequence (Q9Y2K2 whole entry): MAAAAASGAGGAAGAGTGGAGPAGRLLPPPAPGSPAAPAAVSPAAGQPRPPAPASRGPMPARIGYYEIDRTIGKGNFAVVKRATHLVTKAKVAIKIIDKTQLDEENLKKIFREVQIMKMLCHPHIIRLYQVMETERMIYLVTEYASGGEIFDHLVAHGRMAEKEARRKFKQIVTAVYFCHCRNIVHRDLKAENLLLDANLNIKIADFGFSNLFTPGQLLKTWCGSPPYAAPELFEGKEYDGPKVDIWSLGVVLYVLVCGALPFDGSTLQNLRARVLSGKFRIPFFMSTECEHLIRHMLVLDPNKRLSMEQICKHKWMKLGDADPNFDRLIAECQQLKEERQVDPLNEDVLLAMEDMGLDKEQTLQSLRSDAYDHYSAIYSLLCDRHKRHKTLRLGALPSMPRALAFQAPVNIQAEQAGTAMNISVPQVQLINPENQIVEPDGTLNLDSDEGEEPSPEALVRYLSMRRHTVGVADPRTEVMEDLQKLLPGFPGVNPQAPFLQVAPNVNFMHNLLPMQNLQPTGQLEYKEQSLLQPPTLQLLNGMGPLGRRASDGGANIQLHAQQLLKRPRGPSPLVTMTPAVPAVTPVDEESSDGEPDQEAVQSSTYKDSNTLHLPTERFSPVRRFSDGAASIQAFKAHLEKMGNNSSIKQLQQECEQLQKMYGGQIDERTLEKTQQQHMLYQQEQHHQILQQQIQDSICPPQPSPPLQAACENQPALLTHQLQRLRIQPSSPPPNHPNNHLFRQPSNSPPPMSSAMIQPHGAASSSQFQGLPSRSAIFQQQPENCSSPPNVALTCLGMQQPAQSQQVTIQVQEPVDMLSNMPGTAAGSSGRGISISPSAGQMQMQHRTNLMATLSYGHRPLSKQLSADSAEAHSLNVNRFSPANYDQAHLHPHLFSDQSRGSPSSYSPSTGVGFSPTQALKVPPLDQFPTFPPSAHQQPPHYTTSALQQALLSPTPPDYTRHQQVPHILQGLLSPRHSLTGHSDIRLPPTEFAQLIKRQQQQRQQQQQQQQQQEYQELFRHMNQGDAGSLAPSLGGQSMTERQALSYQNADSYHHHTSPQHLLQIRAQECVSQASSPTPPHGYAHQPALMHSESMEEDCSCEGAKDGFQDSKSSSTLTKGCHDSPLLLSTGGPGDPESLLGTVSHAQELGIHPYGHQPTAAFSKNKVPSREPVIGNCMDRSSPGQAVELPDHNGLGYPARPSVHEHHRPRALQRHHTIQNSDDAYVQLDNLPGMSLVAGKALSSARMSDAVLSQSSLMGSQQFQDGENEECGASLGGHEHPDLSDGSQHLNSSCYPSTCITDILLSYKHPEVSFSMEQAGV

For the molecule `Cc1sc(C(=O)NC2COC2)cc1-n1cc(NC(=O)Nc2c(F)cccc2Cl)cn1` [Compound 27, 4-(4-(3-(2-chloro-6-fluorophenyl)ureido)-1H-pyrazol-1-yl)-5-methyl-N-(oxetan-3-yl)thiophene-2-carboxamide], the remaining activity at 10 µM came to 93.6% in assay [1] (10 uM); 77% in [2] (10 uM); 95.1% in assay [3] (10 uM); 88.5% in assay [4] (10 uM); 86.8% in assay [5] (10 uM); 91.3% in [6] (10 uM). Further, the remaining activity at 10 µM in [7] (10 uM) is 91.5%; in assay [8] (10 uM) it was 96.6%; in assay [9] (10 uM), 103%; in assay [10] (10 uM) it was 116%; in assay [11] (10 uM), 86.9%.

Turning to `O=C(Nc1cnn(-c2csc(C(=O)NC3COC3)c2)c1)Nc1c(F)cccc1Cl` [Compound 25, 4-(4-(3-(2-chloro-6-fluorophenyl)ureido)-1H-pyrazol-1-yl)-N-(oxetan-3-yl)thiophene-2-carboxamide], the remaining activity at 5 µM in assay [1] came to 107%; in [2], 86.1%; in assay [3] it was 73.3%; in assay [4] it was 131%; in assay [5] it was 82.6%; in assay [6], 93.5%. Besides, the remaining activity at 5 µM was 95.5% in [7]; 95.5% in [8]; 108% in assay [9]; 92.2% in assay [10]; 94.5% in assay [11].

Take `O=C(Nc1cnn(-c2csc(C(=O)NC3COC3)c2)c1)Nc1ccccc1Cl` [Compound 17, 4-(4-(3-(2-chlorophenyl)ureido)-1H-pyrazol-1-yl)-N-(oxetan-3-yl)thiophene-2-carboxamide]: the remaining activity at 5 µM in assay [1] was 100%; in assay [2], 102%; in [3], 64.6%; in assay [4] it was 101%; in assay [5], 113%; in assay [6] it was 103%. Also, the remaining activity at 5 µM amounted to 99.2% in assay [7]; 102% in [8]; 140% in assay [9]; 107% in assay [10]; 92.4% in assay [11].
